Measurements published in the supplement of paper PMC10307832.

Assays:
[1] = compound: CC(C)C[C@H](NC(=O)[C@H](CCc1ccccc1)NC(=O)CN1CCOCC1)C(=O)N[C@@H](Cc1ccccc1)C(=O)N[C@@H](CC(C)C)C(=O)[C@@]1(C)CO1 [Carfilzomib] + CC(=O)c1c(C)c2cnc(Nc3ccc(N4CCNCC4)cn3)nc2n(C2CCCC2)c1=O [Palbociclib] (partner 0.5 µM); test: relative viability (nuclei count vs DMSO), 5 days (fraction); higher = more cells survive
In short: (§1)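 Five library-drug doses in √10 steps were combined with a fixed anchor-drug dose, or a single drug was given alone, by pin tool to lung cancer cell lines in 1536-well plates the day after seeding. Nuclei were stained and counted after 5 days. Relative viability is the nuclei count in treated wells over that in vehicle wells, taken as the median of duplicate plates.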

Carfilzomib + Olaparib = compound: CC(C)C[C@H](NC(=O)[C@H](CCc1ccccc1)NC(=O)CN1CCOCC1)C(=O)N[C@@H](Cc1ccccc1)C(=O)N[C@@H](CC(C)C)C(=O)[C@@]1(C)CO1 [Carfilzomib] + O=C(c1cc(Cc2n[nH]c(=O)c3ccccc23)ccc1F)N1CCN(C(=O)C2CC2)CC1 [Olaparib] (partner 8 µM); test: as above
In short: as §1

Cell Line | relative viability ([1]; first compound 0.001 µM) | relative viability ([1]; first compound 0.003162 µM) | relative viability ([1]; first compound 0.01 µM) | relative viability ([1]; first compound 0.03162 µM) | relative viability ([1]; first compound 0.1 µM) | relative viability (Carfilzomib + Olaparib; first compound 0.001 µM) | relative viability (Carfilzomib + Olaparib; first compound 0.003162 µM) | relative viability (Carfilzomib + Olaparib; first compound 0.01 µM) | relative viability (Carfilzomib + Olaparib; first compound 0.03162 µM) | relative viability (Carfilzomib + Olaparib; first compound 0.1 µM)
NCI-H2405 | 0.498 | 0.527 | 0.539 | 0.489 | 0.136 | 0.836 | 0.946 | 0.915 | 0.699 | 0.211
NCI-H3122 | 0.238 | 0.222 | 0.191 | 0.187 | 0.132 | 0.654 | 0.611 | 0.609 | 0.452 | 0.269
PC-3 [JPC-3] | 0.516 | 0.539 | 0.564 | 0.502 | 0.333 | 1.17 | 1.16 | 1.18 | 0.652 | 0.301
PC-14 | 0.558 | 0.597 | 0.437 | 0.05 | 0.0508 | 0.281 | 0.334 | 0.243 | 0.0393 | 0.0576
RERF-LC-KJ | 1.07 | 1.04 | 1.27 | 0.837 | 0.193 | 1.05 | 0.898 | 0.91 | 0.379 | 0.22
SK-LU-1 | 0.331 | 0.442 | 0.336 | 0.266 | 0.171 | 0.421 | 0.54 | 0.438 | 0.198 | 0.147
SK-MES-1 | 0.387 | 0.344 | 0.34 | 0.282 | 0.183 | 0.709 | 0.847 | 0.775 | 0.276 | 0.146
SW 900 | – | 0.51 | 0.288 | 0.19 | 0.186 | – | 0.756 | 0.323 | 0.174 | 0.168
SW 1573 | 0.396 | 0.5 | 0.235 | 0.0595 | 0.0481 | 0.587 | 0.487 | 0.215 | 0.0532 | 0.0533
UMC-11 | 0.378 | 0.325 | 0.343 | 0.343 | 0.277 | 0.342 | 0.326 | 0.315 | 0.347 | 0.205
